Paper PMC10812672, “Short Antimicrobial Peptide Derived from the Venom Gland Transcriptome of Pamphobeteus verdolaga Increases Gentamicin Susceptibility of Multidrug-Resistant Klebsiella pneumoniae” (Antibiotics, 2023)
Ends that are not written are not given here.

Tested on: human peripheral blood mononuclear cells (hPBMCs)
Assay: Cytotoxicity, MTT
Format: cell-based
Description: The cytotoxicity of PvAMP66 was assessed in vitro against human red blood cells (hRBCs) and human peripheral blood mononuclear cells (hPBMCs) using concentrations of 1.56–200 µM. At the highest concentration, PvAMP66 induced 60% hemolysis in human erythrocytes (Figure 3a), and a decrease in viability of approximately 40% in the hPBMCs (Figure 3b). […] Ratios between CC50 or HC50, and the IC50 values registered for the bacterial strains, indicate that PvAMP66 has higher selectivity for interacting with prokaryotic membranes (Table 4).
Ten milliliters of fresh blood was mixed with 10 mL of PBS pH 7.20 in 50 mL conical tubes. Then, 10 mL of Ficoll® density gradient media were placed in 50 mL conical tubes, and then the blood/PBS solution was gently poured over without disturbing the interface. The mixture was centrifuged at RT and 400× g for 30 min with the brake off (Universal 32 R, Hettich Group, Kirchlengern, Westphalia, Germany), and the upper plasma phase was removed and discarded. The leukocyte phase was gently removed from the conical tube, placed in a new 50 mL conical tube, and density gradient media was removed in two washings with 25 mL of PBS pH 7.20 at RT and 400× g for 10 min. Cells were then resuspended in 3 mL of RPMI media. Subsequently, 10 µL of this suspension was mixed with 90 µL of Trypan blue in a 0.50 mL polypropylene vial. The cell count and cell viability were determined in a Neubauer counting chamber. Then, cells were suspended to 3 × 10^5 cells/mL, ensuring that cell viability remained above 98%. All peptides were diluted in RPMI media to final concentrations ranging between 1.56 and 200 µM. Subsequently, 20 µL of each peptide solution was added in triplicate into 96-well plates, along with 80 µL of fresh RPMI media. For negative and positive cytotoxicity controls, six wells received 20 µL of PBS and 30% v/v H2O2, respectively. Blank wells without cells were also included. Next, 100 µL of a cell suspension 3 × 10^5 cells/mL was added to each well, and the plates were incubated for 24 h at 37 °C in a 5% CO2 atmosphere (Heratherm, ThermoFisher Scientific, Waltham, MA, USA). After 24 h, plates were centrifuged at RT and 1000× g for 10 min (Sorvall Legend XFR, ThermoFisher Scientific, Waltham, MA, USA). Then, 180 µL of the supernatant was collected, and 28 µL of a 4 mg/mL sterile MTT solution was added. The plates were then incubated for 4 h at 37 °C in a 5% CO2 atmosphere (Heratherm, ThermoFisher Scientific, Waltham, MA, USA). After the second incubation, 130 µL of DMSO was added to each well and plates were agitated at 50 rpm. The solubilized formazan was then measured at 570 nm using a Multiskan SkyHigh spectrophotometer (ThermoFisher Scientific, Waltham, MA, USA). All peptides were evaluated in three independent assays and the viability percentages were calculated as follows: Viability %=1−AbsPEPTIDE−Median AbsBLANK/Median AbsH2O2−Median AbsBLANK×100

WKKIKKFF-NH2 [PvAMP66]
CC50 (Cytotoxic Concentration 50) (hPBMCs in RPMI, 24 h 37 °C 5% CO2, MTT 570 nm, 1.56–200 µM, logistic regression, 95% CI in parentheses, ND = above evaluated range): 172.03 µM
decrease in viability (hPBMCs, highest concentration (200 µM), 24 h, MTT): approximately 40%
CC50/IC50 (selectivity index vs IC50 E. coli ATCC 25922): 4.49
CC50/IC50 (selectivity index vs IC50 K. pneumoniae ATCC BAA-1705): 3.78
CC50/IC50 (selectivity index vs IC50 MDR K. pneumoniae): 10.89
CC50/IC50 (selectivity index vs IC50 P. aeruginosa ATCC 9027): 13.58
CC50/IC50 (selectivity index vs IC50 S. aureus ATCC 29213): 6.24
